In patent EP0987268B1, “Pharmaceutical agents containing epothilone A-N-oxide and/or epothilone B-N-oxide” (Gesellschaft für Biotechnologische Forschung mbH (GBF), priority 1998, dated 2000) one finds IC50 data, which are given here for 1 compound.

Type in all cases: cell-based
For assay [1], the system named is human cervix carcinoma KB 3.1 (DSM ACC 158). Description: Cytotoxic activity, KB 3.1 cells. To be noted: KB 3-1, cell line human cervix carcinoma KB 3.1 (DSM ACC 158).
The test system of assay [2] is mouse fibroblast L929 (ATCC CCL1). Description: Cytotoxic activity, L929 cells. To be noted: cell line mouse fibroblast L929 (ATCC CCL1).
The subject of assay [3] is human lung carcinoma A-549 (DSM ACC 107). Description: Cytotoxic activity, A-549 cells. Conditions: A549, cell line human lung carcinoma A-549 (DSM ACC 107).

Structures are written as SMILES.

Turning to `C/C(=C\c1csc(C)[n+]1[O-])[C@@H]1C[C@@H]2O[C@]2(C)CCC[C@H](C)[C@H](O)[C@@H](C)C(=O)C(C)(C)[C@@H](O)CC(=O)O1` [epothilone B-N-oxide], the IC50 was 2 nM in assay [1], 4 nM in assay [2] and 1.5 nM in assay [3].

The term IC50 denotes the concentration that inhibits the measured activity by half.
